Source: US20100292214A1, “Compounds with Antiparasitic Activity, Applications thereof to the Treatment of Infectious Diseases Caused by Apicomplexans” (commissariat a l'Energie Atomique, priority 2007, published 2010)
Counter-ions that a name gives are not always drawn. Like-named read-outs stand apart in the source and are kept apart here.

Legend:
[1] = system: asynchronous 3D7 chloroquine-sensitive P. falciparum infected red blood cells; assay: Labeled hypoxanthine incorporation assay (in vitro anti-malarial activity); assay type: cell-based; conditions: 3D7 chloroquine-sensitive strain, infected RBC, 48 h contact, [3H]-hypoxanthine incorporation, two independent experiments in duplicates, read-out: IC50 assessed on Plasmodium Falciparum
[2] = system: Toxoplasma gondii RH-β1 strain; assay: microbe, parasite or virus in culture; assay type: cell-based; conditions: read-out: IC50 assessed on Toxoplama Gondii
[3] = Plasmodium falciparum, 3D7, Erythrocyte

C[C@@H](COC(=O)N1CCC(n2c(=O)[nH]c3cc4ccccc4cc32)CC1)N(Cc1ccccc1)Cc1ccccc1 [Compound 12, (S)-2-(dibenzylamino)propyl 4-(1,2-dihydro-2-oxonaphtho[2,3-d]imidazol-3-yl)piperidine-1-carboxylate]
IC50 [1, 3]: 7.2 µM | IC50 ([2]; Toxoplasma gondii): 0.75 µM

C[C@@H](COC(=O)N1CCCC(n2c(=O)[nH]c3ccccc32)CC1)N(Cc1ccccc1)Cc1ccccc1 (stereo partly drawn) [Compound 13, (S)-2-(dibenzylamino)propyl 4-(1,2-dihydro-2-oxobenzo[d]imidazol-3-yl)azepane-1-carboxylate]
IC50 [1, 3]: 10.7 µM | IC50 ([2]; Toxoplasma gondii): 5 µM

Cc1nc2ccccc2n1C1CCN(C(=O)OC[C@H](C)N(Cc2ccccc2)Cc2ccccc2)CC1 [Compound 15, (S)-2-(dibenzylamino)propyl 4-(2-methyl-1H-benzo[d]imidazol-1-yl)piperidine-1-carboxylate]
IC50 [1, 3]: 2.42 µM | IC50 ([2]; Toxoplasma gondii): 3.41 µM

C[C@@H](COC(=O)N1CCCC(n2c(=O)[nH]c3ccccc32)C1)N(Cc1ccccc1)Cc1ccccc1 (stereo partly drawn) [Compound 16, (S)-2-(dibenzylamino)propyl 3-(1,2-dihydro-2-oxobenzo[d]imidazol-3-yl)piperidine-1-carboxylate]
IC50 [1, 3]: 2.81 µM | IC50 ([2]; Toxoplasma gondii): 2.35 µM

C[C@@H](COC(=O)N1CCC(n2c(=O)[nH]c3ccccc32)C1)N(Cc1ccccc1)Cc1ccccc1 (stereo partly drawn) [Compound 17, (S)-2-(dibenzylamino)propyl 3-(1,2-dihydro-2-oxobenzo[d]imidazol-3-yl)pyrrolidine-1-carboxylate]
IC50 [1, 3]: 7.18 µM | IC50 ([2]; Toxoplasma gondii): 3.3 µM

CCOC(=O)C1CN(C(=O)OC[C@H](C)N(Cc2ccccc2)Cc2ccccc2)CCC1n1c(=O)[nH]c2ccccc21 (stereo partly drawn) [Compound 18, 1-(S)-2-(dibenzylamino)propyl 3-ethyl 4-(1,2-dihydro-2-oxobenzo[d]imidazol-3-yl)piperidine-1,3-dicarboxylate]
IC50 [1, 3]: 1.52 µM | IC50 ([2]; Toxoplasma gondii): 2.81 µM

C[C@@H](COC(=O)N1CCC(Cn2c(=O)[nH]c3ccccc32)CC1)N(Cc1ccccc1)Cc1ccccc1 [Compound 19, (S)-2-(dibenzylamino)propyl 4-((1,2-dihydro-2-oxobenzo[d]imidazol-3-yl)methyl)piperidine-1-carboxylate]
IC50 [1, 3]: 5.79 µM | IC50 ([2]; Toxoplasma gondii): 3.41 µM

C[C@@H](COC(=O)N1CCC(CCn2c(=O)[nH]c3ccccc32)CC1)N(Cc1ccccc1)Cc1ccccc1 [Compound 20, (S)-2-(dibenzylamino)propyl 4-(2-(1,2-dihydro-2-oxobenzo[d]imidazol-3-yl)ethyl)piperidine-1-carboxylate]
IC50 [1, 3]: 6.84 µM | IC50 ([2]; Toxoplasma gondii): 4.2 µM

C[C@@H](COC(=O)N1CCCC1Cn1c(=O)[nH]c2ccccc21)N(Cc1ccccc1)Cc1ccccc1 (stereo partly drawn) [Compound 23, (S)-2-(dibenzylamino)propyl 2-((1,2-dihydro-2-oxobenzo[d]imidazol-3-yl)methyl)pyrrolidine-1-carboxylate]
IC50 [1, 3]: 7.27 µM | IC50 ([2]; Toxoplasma gondii): 3.1 µM

C[C@@H](COC(=O)N1CCC(n2c(=O)[nH]c3ccccc32)CC1)N(Cc1ccccc1)Cc1ccccc1 [Compound 25, (S)-2-(dibenzylamino)propyl 4-(1,2-dihydro-2-oxobenzo[d]imidazol-3-yl)piperidine-1-carboxylate]
IC50 [1, 3]: 4.9 µM | IC50 ([2]; Toxoplasma gondii): 14 µM

O=C(OC[C@H](Cc1ccccc1)N(Cc1ccccc1)Cc1ccccc1)N1CCC(n2c(=O)[nH]c3ccccc32)CC1 [Compound 26, (S)-2-(dibenzylamino)-3-phenylpropyl 4-(1,2-dihydro-2-oxobenzo[d]imidazol-3-yl)piperidine-1-carboxylate]
IC50 [1, 3]: 1.4 µM | IC50 ([2]; Toxoplasma gondii): 4.8 µM

C[C@@H](COC(=O)N1CC=C(n2c(=O)[nH]c3ccccc32)CC1)N(Cc1ccccc1)Cc1ccccc1 [Compound 28, (S)-2-(dibenzylamino)propyl 5,6-dihydro-4-(1,2-dihydro-2-oxobenzo[d]imidazol-3-yl)pyridine-1(2H)-carboxylate]
IC50 [1, 3]: 4.1 µM | IC50 ([2]; Toxoplasma gondii): 3.5 µM

O=C(OCCCN(Cc1ccccc1)Cc1ccccc1)N1CCC(n2c(=O)[nH]c3ccccc32)CC1 [Compound 29, 3-(dibenzylamino)propyl 4-(1,2-dihydro-2-oxobenzo[d]imidazol-3-yl)piperidine-1-carboxylate]
IC50 [1, 3]: 3.6 µM | IC50 ([2]; Toxoplasma gondii): 2.5 µM

O=C(OCCN(Cc1ccccc1)Cc1ccccc1)N1CCC(n2c(=O)[nH]c3ccccc32)CC1 [Compound 30, 2-(dibenzylamino)ethyl 4-(1,2-dihydro-2-oxobenzo[d]imidazol-3-yl)piperidine-1-carboxylate]
IC50 [1, 3]: 6.9 µM | IC50 ([2]; Toxoplasma gondii): 7.5 µM

O=C(OCCC(c1ccccc1)c1ccccc1)N1CCC(n2c(=O)[nH]c3ccccc32)CC1 [Compound 36, 3,3-diphenylpropyl 4-(1,2-dihydro-2-oxobenzo[d]imidazol-3-yl)piperidine-1-carboxylate]
IC50 [1, 3]: 8.54 µM | IC50 ([2]; Toxoplasma gondii): 1.2 µM

O=C(OC[C@H](Cc1ccccc1)N(Cc1ccccc1)Cc1ccccc1)N1CCC(n2c(=O)n(Cc3ccccc3)c3ccccc32)CC1 [Compound 37, (S)-2-(dibenzylamino)-3-phenylpropyl 4-(1-benzyl-1,2-dihydro-2-oxobenzo[d]imidazol-3-yl)piperidine-1-carboxylate, hydrochloride salt]
IC50 ([1]; hydrochloride salt): 0.873 µM | IC50 ([2]; hydrochloride salt): 1.8 µM

C[C@@H](COC(=O)N1CCC(n2c(=O)[nH]c3cc(Cl)ccc32)CC1)N(Cc1ccccc1)Cc1ccccc1 [Compound 38, (S)-2-(dibenzylamino)propyl 4-(6-chloro-1,2-dihydro-2-oxobenzo[d]imidazol-3-yl)piperidine-1-carboxylate]
IC50 [1, 3]: 4.68 µM | IC50 ([2]; Toxoplasma gondii): 1 µM

O=C(OCCC1CCN(Cc2ccccc2)CC1)N1CCC(n2c(=O)[nH]c3ccccc32)CC1 [Compound 40, 2-(1-benzylpiperidin-4-yl)ethyl 4-(1,2-dihydro-2-oxobenzo[d]imidazol-3-yl)piperidine-1-carboxylate]
IC50 [1, 3]: 8.16 µM | IC50 ([2]; Toxoplasma gondii): 0.98 µM

CCN(CCOC(=O)N1CCC(n2c(=O)[nH]c3ccccc32)CC1)c1ccccc1 [Compound 41, 2-(ethyl(phenyl)amino)ethyl 4-(2-oxo-2,3-dihydro-1H-benzo[d]imidazol-1-yl)piperidine-1-carboxylate]
IC50 [1, 3]: 24.4 µM | IC50 ([2]; Toxoplasma gondii): 1.8 µM

O=C(OC[C@@H]1CCCN1Cc1ccccc1)N1CCC(n2c(=O)[nH]c3ccccc32)CC1 [Compound 42, ((S)-1-benzylpyrrolidin-2-yl)methyl 4-(1,2-dihydro-2-oxobenzo[d]imidazol-3-yl)piperidine-1-carboxylate]
IC50 [1, 3]: 18.8 µM | IC50 ([2]; Toxoplasma gondii): 5 µM

O=C(OCC(c1ccccc1)c1ccccc1)N1CCC(n2c(=O)[nH]c3ccccc32)CC1 [Compound 43, 2,2-diphenylethyl 4-(1,2-dihydro-2-oxobenzo[d]imidazol-3-yl)piperidine-1-carboxylate]
IC50 [1, 3]: 8.33 µM | IC50 ([2]; Toxoplasma gondii): 12 µM

C[C@@H](COC(=O)N1CCC(c2c[nH]c3ccccc23)CC1)N(Cc1ccccc1)Cc1ccccc1 [Compound 44, (S)-2-(dibenzylamino)propyl 4-(1H-indol-3-yl)piperidine-1-carboxylate]
IC50 [1, 3]: 5.21 µM | IC50 ([2]; Toxoplasma gondii): 1.85 µM

O=c1[nH]c2ccccc2n1C1CCN(C(=S)OCCN(Cc2ccccc2)Cc2ccccc2)CC1 [Compound 46, O-2-(dibenzylamino)ethyl 4-(1,2-dihydro-2-oxobenzo[d]imidazol-3-yl)piperidine-1-carbothioate]
IC50 [1, 3]: 2.84 µM | IC50 ([2]; Toxoplasma gondii): 0.181 µM
